{"source": "patent US11964973B2", "about": "(priority 2019, dated 2024)", "key": {"[1]": {"biological_target": "T1, DGKα (Homo sapiens (Human), UniProt P23743)", "T1 sequence (P23743 whole entry, looked up)": "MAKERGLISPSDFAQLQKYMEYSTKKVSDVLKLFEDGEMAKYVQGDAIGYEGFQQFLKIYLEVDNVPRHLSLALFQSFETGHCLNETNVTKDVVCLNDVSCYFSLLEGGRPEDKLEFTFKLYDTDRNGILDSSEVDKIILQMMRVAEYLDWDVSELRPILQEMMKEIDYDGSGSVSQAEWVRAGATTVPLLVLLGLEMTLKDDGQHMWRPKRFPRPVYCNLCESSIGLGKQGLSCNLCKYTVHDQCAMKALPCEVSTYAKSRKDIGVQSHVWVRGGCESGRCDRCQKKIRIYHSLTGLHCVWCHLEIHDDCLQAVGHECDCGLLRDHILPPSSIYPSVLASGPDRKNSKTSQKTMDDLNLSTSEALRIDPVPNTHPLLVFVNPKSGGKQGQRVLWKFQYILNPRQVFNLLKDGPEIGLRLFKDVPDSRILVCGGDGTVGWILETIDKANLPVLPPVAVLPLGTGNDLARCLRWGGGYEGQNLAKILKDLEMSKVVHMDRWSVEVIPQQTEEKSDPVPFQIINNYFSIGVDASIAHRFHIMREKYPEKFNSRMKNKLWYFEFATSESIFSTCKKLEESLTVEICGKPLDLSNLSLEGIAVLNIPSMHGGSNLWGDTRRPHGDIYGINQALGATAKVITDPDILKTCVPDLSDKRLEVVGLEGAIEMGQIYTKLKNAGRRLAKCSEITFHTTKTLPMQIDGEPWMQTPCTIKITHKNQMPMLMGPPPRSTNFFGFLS", "test": "biochemical", "assay_type": "biochemical", "conditions": "liposome (LIPGLO) assay; read-out: DGKα LIPGLO IC50"}, "[2]": {"biological_target": "human DGKζ (Homo sapiens (Human), UniProt Q13574)", "sequence (Q13574 whole entry, looked up)": "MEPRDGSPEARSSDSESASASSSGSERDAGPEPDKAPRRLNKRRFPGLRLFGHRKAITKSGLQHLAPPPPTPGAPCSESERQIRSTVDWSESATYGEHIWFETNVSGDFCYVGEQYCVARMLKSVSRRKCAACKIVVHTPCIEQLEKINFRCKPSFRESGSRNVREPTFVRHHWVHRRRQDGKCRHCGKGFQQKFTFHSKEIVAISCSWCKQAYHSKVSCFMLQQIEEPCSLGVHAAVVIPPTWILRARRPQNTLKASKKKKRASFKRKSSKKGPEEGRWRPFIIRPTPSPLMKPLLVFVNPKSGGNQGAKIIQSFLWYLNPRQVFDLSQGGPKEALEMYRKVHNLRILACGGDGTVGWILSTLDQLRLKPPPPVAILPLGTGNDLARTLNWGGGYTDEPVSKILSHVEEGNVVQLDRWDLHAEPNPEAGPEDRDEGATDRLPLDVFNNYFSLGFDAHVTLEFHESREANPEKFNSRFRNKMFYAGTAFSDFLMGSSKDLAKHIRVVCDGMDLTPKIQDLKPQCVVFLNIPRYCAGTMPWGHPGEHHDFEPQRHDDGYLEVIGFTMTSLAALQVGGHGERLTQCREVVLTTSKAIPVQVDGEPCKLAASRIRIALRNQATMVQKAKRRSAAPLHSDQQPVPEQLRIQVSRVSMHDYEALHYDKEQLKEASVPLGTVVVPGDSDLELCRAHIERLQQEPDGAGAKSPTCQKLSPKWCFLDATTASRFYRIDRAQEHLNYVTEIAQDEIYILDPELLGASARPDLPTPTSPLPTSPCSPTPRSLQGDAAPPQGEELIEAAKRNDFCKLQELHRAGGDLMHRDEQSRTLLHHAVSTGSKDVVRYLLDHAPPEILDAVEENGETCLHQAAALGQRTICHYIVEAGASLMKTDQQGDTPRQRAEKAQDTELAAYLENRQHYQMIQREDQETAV", "test": "biochemical", "assay_type": "biochemical", "conditions": "liposome (LIPGLO) assay; read-out: DGKζ LIPGLO IC50"}, "[3]": {"system": "Human venous whole blood (IFN-γ)", "test": "Human whole blood IFN-γ assay", "assay_type": "cell-based", "method": "Assay 10: Human Whole Blood IFN-γ Assay\nHuman venous whole blood (22.5 μL per well), obtained from healthy donors, was pre-treated with compounds for one hour at 37° C. in a humidified 95% air/5% CO2 incubator. The blood was stimulated with 2.5 μL anti-human CD3 and anti-CD28 mAb at a final concentration of 1 μg/mL each for 24 hours at 37° C. IFN-γ in the supernatants was measured using AlphLISA kit (Cat #AL217)."}, "[4]": {"biological_target": "T1, DGKα", "test": "DGKα ADPGLO assay", "assay_type": "biochemical"}, "[5]": {"system": "OT-1 CD8+ T cells with SIINFEKL-loaded MC38 tumor cells", "test": "Murine cytotoxic T lymphocyte assay (IFN-γ)", "assay_type": "cell-based, mouse", "conditions": "Mus musculus, MC-38; for IC50: murine cytotoxic T lymphocyte, IFN-γ, read-out: msCTL INFg IC50; for EC50: murine cytotoxic T lymphocyte assay, read-out: msCTL", "procedure,_shortened": "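OT-1 CD8+ T cells, expanded 5 days with OVA peptide and mIL2, pretreated 1 h with DGK inhibitor, then cocultured overnight at 37 °C with peptide-pulsed MC38 cells (1:10 ratio). IFN-γ in supernatant measured after 24 h by AlphaLisa.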"}, "[6]": {"system": "naïve human CD8 T cells (IFN-γ)", "test": "Human CD8 T cells IFN-γ assay", "assay_type": "cell-based", "conditions": "T-cell", "method": "Assay 8: Human CD8 T Cells IFN-γ Assay\nFrozen naïve human CD8 T cells were thawed in AIM-V media, incubated for 2 h in 37° C., and counted. The 384-well tissue culture plate was coated overnight at 4° C. with 20 μL anti-human CD3 at 0.05 μg/mL in PBS, which was removed off the plate before 40,000 cells per 40 microliters CD8 T cells with 0.1 μg/mL soluble anti-human CD28 were added to each well. The compounds were transferred using an Echo liquid handler to the cell plate immediately after the cells were plated. After 20 h incubation at 37° C. incubator, 3 microliters per well supernatants transferred into a new 384-well white assay plate for cytokine measurement.\nInterferon-γ (IFN-γ) was quantitated using the AlphLISA kit (Cat #AL217) as described by the manufacturer manual (Perkin Elmer). The counts from each well were converted to IFN-γ concentration (pg/mL)."}, "[7]": {"system": "naïve human CD8 T cells", "test": "CellTiter-Glo CD8 T cell proliferation assay", "assay_type": "cell-based", "conditions": "Homo sapiens, read-out: CD8 GLO Normalized EC50", "procedure,_shortened": "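Thawed naïve human CD8 T cells (20 k/well) were stimulated with plate-bound anti-CD3 (0.1 μg/mL coating) and 0.5 μg/ml soluble anti-CD28, with compounds added right after plating. After 72 h at 37° C, proliferation was read by CellTiter-Glo luminescence. The signal from stimulated cells was taken as background.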"}, "[8]": {"conditions": "Homo sapiens, 24 h, human whole blood, anti-CD3 plus anti-CD28, 24 hours, read-out: INFg Whole Blood Normalized Agonist EC50"}, "[9]": {"conditions": "read-out: HuCD8 INFG Normalized EC50"}, "[10]": {"conditions": "Homo sapiens, human whole blood IFN-γ, read-out: INFg Whole Blood"}}, "note": "Where two headings read alike, the source gives them in different places.", "data": [{"compound": "C[C@@H]1CN(c2cc(=O)n(C)c3ccc(C#N)nc23)CC[C@H]1Oc1cccc(C2CC2)c1", "note": "(single isomer, unassigned) [Example 92]", "values": [{"measurement": "IC50", "setting": "[1]", "value": 0.028, "unit": "µM"}, {"measurement": "IC50", "setting": "[2]", "value": 16, "unit": "µM"}, {"measurement": "EC50", "setting": "[3]; human whole blood, anti-CD3 plus anti-CD28, 24 hours, read-out: INFg Whole Blood Normalized Agonist EC50", "value": 0.91, "unit": "µM"}, {"measurement": "IC50", "setting": "[4]", "value": 0.00051, "unit": "µM"}]}, {"compound": "CC[C@@H]1CN(c2cc(=O)n(C)c3ccc(C#N)nc23)CC[C@H]1Oc1cccc(C(C)C)c1", "note": "(single isomer, unassigned) [Example 138]", "values": [{"measurement": "IC50", "setting": "[1]", "value": 0.024, "unit": "µM"}, {"measurement": "IC50", "setting": "[2]", "value": 0.8, "unit": "µM"}, {"measurement": "EC50", "setting": "[3]; read-out: INFg Whole Blood Normalized Agonist EC50, human whole blood, anti-CD3 plus anti-CD28, 24 hours", "value": 0.34, "unit": "µM"}, {"measurement": "IC50", "setting": "[4]", "value": 0.0052, "unit": "µM"}]}, {"compound": "Cn1c(=O)c(C#N)c(N2CCC(Oc3ccc(C(C)(C)C)cc3)CC2)c2nc(Cl)ccc21", "note": "[Example 15, 4-(4-(4-(tert-butyl)phenoxy)piperidin-1-yl)-6-chloro-1-methyl-2-oxo-1,2-dihydro-1,5-naphthyridine-3-carbonitrile]", "values": [{"measurement": "IC50", "setting": "[1]", "value": 0.51, "unit": "µM"}, {"measurement": "IC50", "setting": "[2]", "value": 7.4, "unit": "µM"}, {"measurement": "EC50", "setting": "[3]; [8]", "value": 7.6, "unit": "µM"}, {"measurement": "IC50", "setting": "[5]", "value": 0.29, "unit": "µM"}, {"measurement": "EC50", "setting": "[6]; [9]", "value": 0.87, "unit": "µM"}, {"measurement": "EC50", "setting": "[7]", "value": 0.32, "unit": "µM"}]}, {"compound": "Cn1c(=O)c(C#N)c(N2CCC(Oc3ccccc3Cl)CC2)c2nc(Cl)ccc21", "note": "[Example 18, 6-chloro-4-(4-(2-chlorophenoxy)piperidin-1-yl)-1-methyl-2-oxo-1,2-dihydro-1,5-naphthyridine-3-carbonitrile]", "values": [{"measurement": "IC50", "setting": "[1]", "value": 2.6, "unit": "µM"}, {"measurement": "IC50", "setting": "[2]", "value": 13, "unit": "µM"}, {"measurement": "EC50", "setting": "[3]; [8]", "value": 10, "unit": "µM"}, {"measurement": "IC50", "setting": "[5]", "value": 1.5, "unit": "µM"}, {"measurement": "EC50", "setting": "[6]; [9]", "value": 0.19, "unit": "µM"}, {"measurement": "EC50", "setting": "[7]", "value": 0.079, "unit": "µM"}]}, {"compound": "Cc1ccc(OC2CCN(c3c(C#N)c(=O)n(C)c4ccc(Cl)nc34)CC2)cc1", "note": "[Example 21, 6-chloro-1-methyl-2-oxo-4-(4-(p-tolyloxy)piperidin-1-yl)-1,2-dihydro-1,5-naphthyridine-3-carbonitrile]", "values": [{"measurement": "IC50", "setting": "[1]", "value": 0.77, "unit": "µM"}, {"measurement": "IC50", "setting": "[2]", "value": 7.8, "unit": "µM"}, {"measurement": "IC50", "setting": "[5]", "value": 1.7, "unit": "µM"}, {"measurement": "EC50", "setting": "[6]; [9]", "value": 0.16, "unit": "µM"}, {"measurement": "EC50", "setting": "[7]", "value": 0.092, "unit": "µM"}]}, {"compound": "Cn1c(=O)cc(N2CCC(Oc3ccc(OC(F)(F)F)cc3)CC2)c2nc(C#N)ccc21", "note": "[Example 52, 5-methyl-6-oxo-8-(4-(4-(trifluoromethoxy)phenoxy)piperidin-1-yl)-5,6-dihydro-1,5-naphthyridine-2-carbonitrile]", "values": [{"measurement": "IC50", "setting": "[1]", "value": 0.8, "unit": "µM"}, {"measurement": "IC50", "setting": "[2]", "value": 3.8, "unit": "µM"}, {"measurement": "EC50", "setting": "[3]; [8]", "value": 2.7, "unit": "µM"}, {"measurement": "IC50", "setting": "[5]", "value": 0.15, "unit": "µM"}, {"measurement": "EC50", "setting": "[6]; [9]", "value": 1, "unit": "µM"}]}, {"compound": "Cn1c(=O)c(F)c(N2CCC(Oc3ccc(OC(F)(F)F)cc3)CC2)c2nc(C#N)ccc21", "note": "[Example 237, 7-fluoro-5-methyl-6-oxo-8-(4-(4-(trifluoromethoxy)phenoxy)piperidin-1-yl)-5,6-dihydro-1,5-naphthyridine-2-carbonitrile]", "values": [{"measurement": "EC50", "setting": "[3]; [10]", "value": 3.3, "unit": "µM"}, {"measurement": "EC50", "setting": "[5]", "value": 0.2, "unit": "µM"}, {"measurement": "EC50", "setting": "[6]; read-out: HuCD8 INFG", "value": 0.34, "unit": "µM"}]}, {"compound": "COc1ccc(-c2c(N3CCC(Oc4ccc(OC(F)(F)F)cc4)CC3)c3nc(C#N)ccc3n(C)c2=O)cn1", "note": "[Example 240, 7-(6-methoxypyridin-3-yl)-5-methyl-6-oxo-8-(4-(4-(trifluoromethoxy)phenoxy)piperidin-1-yl)-5,6-dihydro-1,5-naphthyridine-2-carbonitrile]", "values": [{"measurement": "EC50", "setting": "[3]; [10]", "value": 5.3, "unit": "µM"}, {"measurement": "EC50", "setting": "[5]", "value": 0.58, "unit": "µM"}, {"measurement": "EC50", "setting": "[6]; read-out: HuCD8 INFG", "value": 1, "unit": "µM"}]}, {"compound": "COc1cc(-c2c(N3CCC(Oc4ccc(OC(F)(F)F)cc4)CC3)c3nc(C#N)ccc3n(C)c2=O)ccn1", "note": "[Example 241, 7-(2-methoxypyridin-4-yl)-5-methyl-6-oxo-8-(4-(4-(trifluoromethoxy)phenoxy)piperidin-1-yl)-5,6-dihydro-1,5-naphthyridine-2-carbonitrile]", "values": [{"measurement": "EC50", "setting": "[3]; [10]", "value": 10, "unit": "µM"}, {"measurement": "EC50", "setting": "[5]", "value": 0.57, "unit": "µM"}, {"measurement": "EC50", "setting": "[6]; read-out: HuCD8 INFG", "value": 1.3, "unit": "µM"}]}]}
